System: tobacco budworm (Heliothis virescens [Fabricius])
Experiment: surface-treated diet test, insecticidal activity against tobacco budworm
Format: in vivo
Parameters: mortality: concentration or dose not given beside the values
Conditions: 0.25 millimoles of candidate insecticide on the surface of the diet, second instar larvae, five-day exposure; for Percent Mortality / mortality: compared to total number of insects infested; for Percent Growth Inhibition / pest or weed control at 0.25 mmol/well: inhibition of insect weight relative to untreated controls; for mortality / pest or weed control at 0.25 mmol/well: Heliothis virescens, 120 h; for mortality: read-out: Percent Mortality; for pest or weed control at 0.25 mmol/well: read-out: Percent Growth Inhibition
How it was run: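 Wheat germ artificial diet surface-treated with compound from 50 mM DMSO stock diluted 1:7 in 1:1 water/acetone (0.25 millimolar on diet), or lower-rate dilutions; DMSO-only controls. One second-instar larva per well, 25° C, 60% RH, 14 h light, five days; percent weight inhibition versus untreated and percent mortality scored.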

Structure (SMILES): O=S(=O)([O-])C(F)(F)C(F)(F)C(F)(F)C(F)(F)F.OC1(C(c2ccc(OC(F)(F)F)cc2)c2ccc(OC(F)(F)F)cc2)CC[N+](O)(Cc2ccc(Oc3ccccn3)cc2)CC1 (stereo not shown) [Compound 508]
- Percent Mortality: 100%
- Percent Growth Inhibition: 100%

Structure (SMILES): O=Cc1ccc(C(c2ccc(OC(F)(F)F)cc2)C2(O)CCN(Cc3ccc(Oc4ccccn4)cc3)CC2)cc1 (stereo not shown) [Compound 256]
- Percent Mortality: 17%
- Percent Growth Inhibition: 100%

Structure (SMILES): [O-][N+]1(Cc2ccc(Oc3ncccn3)cc2)CCC(O)(C(c2ccc(OC(F)(F)F)cc2)c2ccc(OC(F)(F)F)cc2)CC1 (stereo not shown) [Compound 112, 4-{bis[4-(trifluoromethoxy)phenyl]methyl}-4-hydroxy-1-[(4-pyrimidin-2-yloxyphenyl)methyl]piperidin-1-oxide]
- mortality: 100%
- pest or weed control at 0.25 mmol/well: 100%

Structure (SMILES): OC1(C(c2ccc(OC(F)(F)F)cc2)c2ccc(C(F)(F)F)cc2)CCN(Cc2ccc(Oc3ccccn3)cc2)CC1 (stereo not shown) [Compound 265]
- Percent Mortality: 100%
- Percent Growth Inhibition: 100%

Structure (SMILES): N#Cc1ccc(Oc2ccc(CN3CCC(O)(C(c4ccc(OC(F)(F)F)cc4)c4ccc(OC(F)(F)F)cc4)CC3)cc2)nc1 [Compound 283]
- Percent Mortality: 100%
- Percent Growth Inhibition: 100%

Structure (SMILES): CC1(C)[C@@H]2CCC1(CS(=O)(=O)[O-])C(=O)C2.CCON=Cc1ccc(C[N+]2(O)CCC(O)(C(c3ccc(OC(F)(F)F)cc3)c3ccc(OC(F)(F)F)cc3)CC2)cc1 (stereo not shown) [Compound 507]
- Percent Mortality: 100%
- Percent Growth Inhibition: 100%

Structure (SMILES): O=C(O)CC(O)(CC(=O)O)C(=O)[O-].OC1(C(c2ccc(OC(F)(F)F)cc2)c2ccc(OC(F)(F)F)cc2)CC[N+](O)(Cc2ccc(Oc3ccc(Cl)nn3)cc2)CC1 (stereo not shown) [Compound 492]
- Percent Mortality: 100%
- Percent Growth Inhibition: 100%

Structure (SMILES): CCON=Cc1ccc(C[N+]2([O-])CCC(O)(C(O)(c3ccc(OC(F)(F)F)cc3)c3ccc(OC(F)(F)F)cc3)CC2)cc1 (stereo not shown) [Compound 424]
- Percent Mortality: 100%
- Percent Growth Inhibition: 100%

Structure (SMILES): OC1(C(c2ccc(OC(F)(F)F)cc2)c2ccc(OC(F)(F)F)cc2)CCN(Cc2ccc(Oc3ccccc3Cl)cc2)CC1 [Compound 297]
- Percent Mortality: 100%
- Percent Growth Inhibition: 100%

Structure (SMILES): OC1(C(c2ccc(OC(F)(F)F)cc2)c2ccc(OC(F)(F)F)cc2)CCN(CCOc2ccc(Cl)cc2)CC1 [Compound 475]
- Percent Mortality: 100%
- Percent Growth Inhibition: 100%

Structure (SMILES): OC1(C(c2ccc(OC(F)(F)F)cc2)c2ccc(OC(F)(F)F)cc2)CCN(Cc2ccc(OCc3ccccc3)cc2)CC1 [Compound 304]
- Percent Mortality: 100%
- Percent Growth Inhibition: 100%

Structure (SMILES): [N-]=[N+]=NCC1(C(c2ccc(C(F)(F)F)cc2)c2ccc(C(F)(F)F)cc2)CCN(Cc2ccc(OCC3CC3)cc2)CC1 [Compound 449]
- Percent Mortality: 0%
- Percent Growth Inhibition: 78%

Structure (SMILES): CC(C)OC(=O)Nc1ccc(C[N+]2([O-])CCC(O)(C(O)(c3ccc(OC(F)(F)F)cc3)c3ccc(OC(F)(F)F)cc3)CC2)cc1 (stereo not shown) [Compound 423]
- Percent Mortality: 100%
- Percent Growth Inhibition: 100%

Structure (SMILES): COCCOc1ccc(C[N+]2([O-])CCC(O)(C(c3ccc(OC(F)(F)F)cc3)c3ccc(OC(F)(F)F)cc3)CC2)cc1 (stereo not shown) [Compound 385, 4-{bis[4-(trifluoromethoxy)phenyl]methyl}-4-hydroxy-1-{[4-(2-methoxyethoxy)phenyl]methyl}piperidin-1-oxide]
- mortality: 100%
- pest or weed control at 0.25 mmol/well: 100%

Structure (SMILES): CCON=Cc1ccc(C[N+]2([O-])CCC(O)(C(c3ccc(OC(F)(F)F)cc3)c3ccc(OC(F)(F)F)cc3)CC2)cc1 (stereo not shown) [Compound 118]
- Percent Mortality: 100%
- Percent Growth Inhibition: 100%

Structure (SMILES): CC(C)OC(=O)c1ccc(CN2CCC(O)(C(c3ccc(C(F)(F)F)cc3)c3ccc(C(F)(F)F)cc3)CC2)cc1 [Compound 330]
- Percent Mortality: 100%
- Percent Growth Inhibition: 100%

Structure (SMILES): CC(C)=CCCC(C)CC(=O)[O-].OC1(C(c2ccc(OC(F)(F)F)cc2)c2ccc(OC(F)(F)F)cc2)CC[N+](O)(Cc2ccc(Oc3ccccn3)cc2)CC1 (stereo not shown) [Compound 509]
- Percent Mortality: 100%
- Percent Growth Inhibition: 100%

Structure (SMILES): OC1(C(c2ccc(OC(F)(F)F)cc2)c2ccc(C3OCCO3)cc2)CCN(Cc2ccc(Oc3ccccn3)cc2)CC1 (racemic) [Compound 295]
- Percent Mortality: 100%
- Percent Growth Inhibition: 100%

Structure (SMILES): CC(=O)OC(c1ccc(Cl)cc1)c1ccc(CN2CCC(O)(C(c3ccc(OC(F)(F)F)cc3)c3ccc(OC(F)(F)F)cc3)CC2)cc1 (racemic) [Compound 289]
- Percent Mortality: 100%
- Percent Growth Inhibition: 100%

Structure (SMILES): CCCOC(=O)Nc1ccc(CN2CCC(O)(C(c3ccc(C(F)(F)F)cc3)c3ccc(C(F)(F)F)cc3)CC2)cc1 [Compound 313]
- Percent Mortality: 100%
- Percent Growth Inhibition: 100%

Structure (SMILES): [O-][N+]1(Cc2ccc(Oc3ccccn3)cc2)CCC(O)(C(F)(c2ccc(OC(F)(F)F)cc2)c2ccc(OC(F)(F)F)cc2)CC1 (stereo not shown) [Compound 430]
- Percent Mortality: 100%
- Percent Growth Inhibition: 100%

Structure (SMILES): CCCOc1ccc(C[N+]2([O-])CCC(O)(C(O)(c3ccc(C(F)(F)F)cc3)c3ccc(C(F)(F)F)cc3)CC2)cc1 (stereo not shown) [Compound 121]
- Percent Mortality: 100%
- Percent Growth Inhibition: 100%

Structure (SMILES): [O-][N+]1(Cc2ccc(Oc3ccccn3)cc2)CCC(O)(C(c2ccc(Br)cc2)c2ccc(OC(F)(F)F)cc2)CC1 (stereo not shown) [Compound 339]
- Percent Mortality: 100%
- Percent Growth Inhibition: 100%

Structure (SMILES): CC(=O)NCC1(C(c2ccc(C(F)(F)F)cc2)c2ccc(C(F)(F)F)cc2)CCN(Cc2ccc(Oc3ncccn3)cc2)CC1 [Compound 451]
- Percent Mortality: 0%
- Percent Growth Inhibition: 100%

Structure (SMILES): CC1(C)[C@H]2CCC1(CS(=O)(=O)[O-])C(=O)C2.OC1(C(c2ccc(OC(F)(F)F)cc2)c2ccc(OC(F)(F)F)cc2)CC[N+](O)(Cc2ccc(Oc3ccccn3)cc2)CC1 (stereo not shown) [Compound 498]
- Percent Mortality: 100%
- Percent Growth Inhibition: 100%

Structure (SMILES): [O-][N+]1(Cc2ccc(Oc3ncccc3Cl)cc2)CCC(O)(C(c2ccc(OC(F)(F)F)cc2)c2ccc(OC(F)(F)F)cc2)CC1 (stereo not shown) [Compound 399]
- Percent Mortality: 100%
- Percent Growth Inhibition: 100%

Structure (SMILES): OC1(C(c2ccc(OC(F)(F)F)cc2)c2ccc(OC(F)(F)F)cc2)CCN(Cc2ccc(-c3ncccn3)cc2)CC1 [Compound 20]
- Percent Mortality: 100%
- Percent Growth Inhibition: 100%

Structure (SMILES): OC1(C(c2ccc(Cl)cc2)c2ccc(C(F)(F)F)cc2)CCN(Cc2ccc(Oc3ncccn3)cc2)CC1 (stereo not shown) [Compound 7]
- Percent Mortality: 100%
- Percent Growth Inhibition: 100%

Structure (SMILES): O=C([O-])C1CCCCC1.OC1(C(c2ccc(OC(F)(F)F)cc2)c2ccc(OC(F)(F)F)cc2)CC[N+](O)(Cc2ccc(Oc3ccccn3)cc2)CC1 (stereo not shown) [Compound 502]
- Percent Mortality: 100%
- Percent Growth Inhibition: 100%

Structure (SMILES): OC1(C(c2ccc(OC(F)(F)F)cc2)c2ccc(OC(F)(F)F)cc2)CCN(Cc2ccc(C3OCCO3)cc2)CC1 [Compound 263]
- Percent Mortality: 100%
- Percent Growth Inhibition: 100%

Structure (SMILES): [O-][N+]1(CCOc2ccc(Br)cc2)CCC(O)(C(c2ccc(OC(F)(F)F)cc2)c2ccc(OC(F)(F)F)cc2)CC1 (stereo not shown) [Compound 482]
- Percent Mortality: 100%
- Percent Growth Inhibition: 100%

Structure (SMILES): CCCCCCCCCCCCc1ccc(S(=O)(=O)[O-])cc1.OC1(C(c2ccc(OC(F)(F)F)cc2)c2ccc(OC(F)(F)F)cc2)CC[N+](O)(Cc2ccc(Oc3ccccn3)cc2)CC1 (stereo not shown) [Compound 515]
- Percent Mortality: 100%
- Percent Growth Inhibition: 100%

Structure (SMILES): CCS(=O)(=O)[O-].OC1(C(c2ccc(OC(F)(F)F)cc2)c2ccc(OC(F)(F)F)cc2)CC[N+](O)(Cc2ccc(Oc3ccccn3)cc2)CC1 (stereo not shown) [Compound 506]
- Percent Mortality: 100%
- Percent Growth Inhibition: 100%

Structure (SMILES): OC1(C(c2ccccc2F)c2ccccc2F)CCN(Cc2ccc(Oc3ncccn3)cc2)CC1 [Compound 434]
- Percent Mortality: 0%
- Percent Growth Inhibition: 56%

Structure (SMILES): OC1(C(c2ccc3c(c2)OC(F)(F)O3)c2ccc3c(c2)OC(F)(F)O3)CCN(Cc2ccc(Oc3ccccn3)cc2)CC1 [Compound 446]
- Percent Mortality: 100%
- Percent Growth Inhibition: 100%

Structure (SMILES): CC(C)Oc1ccc(C[N+]2([O-])CCC(O)(C(c3ccc(C(F)(F)F)cc3)c3ccc(C(F)(F)F)cc3)CC2)cc1 (stereo not shown) [Compound 380]
- Percent Mortality: 100%
- Percent Growth Inhibition: 100%

Structure (SMILES): O=C(NC1CC1)Oc1ccc(CN2CCC(O)(C(c3ccc(OC(F)(F)F)cc3)c3ccc(OC(F)(F)F)cc3)CC2)cc1 [Compound 298]
- Percent Mortality: 100%
- Percent Growth Inhibition: 100%

Structure (SMILES): CCON=Cc1ccc(CN2CCC(O)(C(c3ccc(OC(F)(F)F)cc3)c3ccc(OC(F)(F)F)cc3)CC2)cc1 [Compound 28]
- Percent Mortality: 100%
- Percent Growth Inhibition: 100%

— patent US8119563B2, “N-substituted azacycles” (FMC Corporation, priority 2003, dated 2012)
